Like-named read-outs stand apart in the source and are kept apart here. Marks after values point to notes of the source that are not given here.
Experiments:
[1] = percutaneous dose of 1 mg/breast/day; cited from earlier work
[2] = Group 2: 4-OHT gel (20 mg/100 g) 0.5 mg/day, both breasts, 3-4 weeks; n=5; cited from earlier work
clinical = experiment: clinical; parameters: species or system women; conditions: in vivo
Experimental: At the end of a menstrual cycle, each patient received a single dose, after which serial blood samples were collected at 0, 0.5, 1, 1.5, 2, 3, 4, 6, 12, 18, 24, 36, 48, and 72 hours.

estrone sulphatase = target: T1, estrone sulphatase (Homo sapiens, UniProt P08842); conditions: mammary cancer cell lines; cited from earlier work
T1 construct: estrone sulphatase activity in mammary cancer cell lines; endogenous in cells
T1 sequence (P08842 22-583): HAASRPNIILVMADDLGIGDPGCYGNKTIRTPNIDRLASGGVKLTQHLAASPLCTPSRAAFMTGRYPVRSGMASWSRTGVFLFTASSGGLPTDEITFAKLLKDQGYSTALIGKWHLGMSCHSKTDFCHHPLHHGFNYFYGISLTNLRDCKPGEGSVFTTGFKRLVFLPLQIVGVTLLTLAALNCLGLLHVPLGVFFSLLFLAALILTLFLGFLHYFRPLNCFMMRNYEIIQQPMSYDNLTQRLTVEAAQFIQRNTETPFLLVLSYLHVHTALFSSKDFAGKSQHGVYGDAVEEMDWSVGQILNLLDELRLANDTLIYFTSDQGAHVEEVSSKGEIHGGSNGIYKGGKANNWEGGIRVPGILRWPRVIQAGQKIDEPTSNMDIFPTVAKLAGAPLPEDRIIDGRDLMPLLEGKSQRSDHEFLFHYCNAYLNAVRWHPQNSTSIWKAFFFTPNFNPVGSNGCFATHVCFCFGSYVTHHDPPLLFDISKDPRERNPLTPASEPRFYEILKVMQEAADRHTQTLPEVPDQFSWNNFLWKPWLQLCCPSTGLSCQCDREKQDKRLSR

[3] = in vivo
Experimental: (§1) The patients received [^3H]-labeled drug applied directly on the affected breasts at specified intervals ranging from 12 hours to 7 days before surgery to excise diseased tissue. Breast tissue from three regions: the tumor, tissue immediately surrounding the tumor, and normal tissue, was excised and immediately frozen in liquid nitrogen. Additionally, plasma and urine samples were obtained at scheduled intervals and frozen until analysis.

[4] = in vivo; remark: listed apart in the source
Experimental: Each participant applied the gel daily for the duration of two menstrual cycles.
On the first day of the following menstruation, treatment, which consisted of daily application of the gel over two menstrual cycles, began. Blood samples were collected 24 hours following the morning application of gel on days 7, 20 and 25 of the first and second cycles. On the last day of administration, day 25 of the second menstrual cycle, serial blood samples were collected prior to application and at 0.5, 1, 1.5, 2, 3, 4, 6, 12, 18, 24, 36, 48, and 72 hours after application of the gel.

[5] = in vivo; remark: listed apart in the source
Experimental: as §1

[6] = in vivo; remark: listed apart in the source
Experimental: as §1

rat liver = conditions: in vivo; cited from earlier work
estrogen receptors = conditions: more affinity than tamoxifen; cited from earlier work
[7] = Example 1 follow-up study: radioactivity and metabolites in blood
Experimental: as §1

[8] = test system: normal human epithelial breast cells; conditions: more than Z-tamoxifen; cited from earlier work
[9] = cited from earlier work
[10] = cited from earlier work; remark: listed apart in the source
[11] = Example 1 follow-up study: radioactivity and metabolites in breast tissue after percutaneous application; conditions: for % Metabolites in Breast Tissue: breast tumor tissue
Experimental: as §1

[12] = test system: p53(-) normal human mammary epithelial cells; conditions: cited from earlier work
[13] = oral tamoxifen group, 20 mg/day

CCC(=C(c1ccc(O)cc1)c1ccc(OCCN(C)C)cc1)c1ccccc1 [4-hydroxy tamoxifen, 1-[4-(2-N-dimethylaminoethoxy)phenyl]-1-(4-hydroxyphenyl)-2-phenylbut-1-ene]
4-hydroxy tamoxifen concentration in breast tissue exceeds normal estradiol concentrations in breast tissue by a factor of [1]: 4
Mean ± SD 4-hydroxy tamoxifen (Range), Plasma Concentrations, Day Pre-Surgery [2]: 0 (0 - 0)^a pg/mL
t1/2 (Range) (clinical; human, topical or ocular): (49 - 101) hr
half-life (clinical; human, topical or ocular, t1/2 (Range)): 58 to 118 h
patients with detectable plasma concentrations (>5 pg/mL) (clinical): 6 of 12
inhibitory effect on estrone sulphatase activity (estrone sulphatase): significant inhibitory effect
peak urinary elimination [3]: later time
laboratory or clinical evidence of systemic effects [4]: no detectable
% of radioactivity in blood represented by [5]: 68%
distribution within breast tissue [6]: concentrated predominantly in the cytosolic and nuclear fractions of breast tissue
metabolism in intracellular sites of breast tissue [6]: remained unmetabolized except for limited isomerization from the Z to the E form
retention in the breast [6]: approximately 4 days
rat liver carcinogen (rat liver): not
affinity for estrogen receptors (estrogen receptors): 100 fold

CCC(=C(c1ccc(O)cc1)c1ccc(OCCNC)cc1)c1ccccc1 [N-Desmethyl-4-Hydroxy Tamoxifen]
% of radioactivity in blood represented by ([7]; 24 hours after percutaneous administration of [3H]-4-hydroxy tamoxifen): 18%

CC/C(=C(\c1ccc(O)cc1)c1ccc(OCCN(C)C)cc1)c1ccccc1 [Z-4-hydroxy tamoxifen]
inhibits the growth in culture of normal human epithelial breast cells [8]: 100 fold

CC/C(=C(\c1ccccc1)c1ccc(OCCN(C)C)cc1)c1ccccc1 [[^3H]-tamoxifen, reference compound]
plateau of radioactivity in blood ([7]; percutaneous application): 2 days

CC/C(=C(\c1ccccc1)c1ccc(OCCN(C)C)cc1)c1ccccc1 [tamoxifen]
side effects reported by one person ([9]; Group 2 (0.5 mg/day gel): seventh day of treatment, Group 1 (oral tamoxifen): fifth day of treatment): hot flashes and mild vaginitis
anti-thrombin III and fibrinogen, pre- versus post treatment [9, 13]: statistically significant decrease
platelet and lymphocyte counts, pre- versus post treatment [9, 13]: statistically significant increase
decrease of risk of benign breast disease ([10]; cyst): 34%
decrease of risk of benign breast disease ([10]; duct ectasia): 28%
decrease of risk of benign breast disease ([10]; fibrocystic disease): 33%
decrease of risk of benign breast disease ([10]; hyperplasia): 40%
reduces the risk of developing benign breast disease ([10]; overall): 28%
reduction of the need for breast biopsies ([10]; women under 50): 41%
% Metabolites in Breast Tissue ([11]; Day 4 after percutaneous administration of Z-[3H]-4-hydroxy tamoxifen to the affected breast): <1%
% Metabolites in Breast Tissue ([11]; Day 7 after percutaneous administration of Z-[3H]-4-hydroxy tamoxifen to the affected breast): 2%
retention in the breast ([11]; percutaneous application of [3H]-labeled drug): shorter and far weaker
initiates apoptosis [12]: initiates apoptosis
inhibitory effect on estrone sulphatase activity (estrone sulphatase): little or no effect
rat liver carcinogen (rat liver): potent rat liver carcinogen
